Results: ChEMBL document CHEMBL3124838, “Discovery of 6-aryl-azabenzimidazoles that inhibit the TBK1/IKK-ε kinases” (Bioorg Med Chem Lett, 2014)
pIC50: −log10 of the molar value.

Columns and labels:
[1] = molecular target: CDK7/Cyclin H/MNAT1 (Homo sapiens) (UniProt P51946+P50613+P51948); assay: Inhibition of human CDK7/cyclin H/MAT1 assessed as residual activity at 1 uM relative to control; type: protein-complex assay
[2] = molecular target: Serine/threonine-protein kinase pim-2 (Homo sapiens) (UniProt Q9P1W9); assay: Inhibition of human PIM-2 assessed as residual activity at 1 uM relative to control
Chain of Serine/threonine-protein kinase pim-2 (Homo sapiens) (Q9P1W9 whole entry, looked up): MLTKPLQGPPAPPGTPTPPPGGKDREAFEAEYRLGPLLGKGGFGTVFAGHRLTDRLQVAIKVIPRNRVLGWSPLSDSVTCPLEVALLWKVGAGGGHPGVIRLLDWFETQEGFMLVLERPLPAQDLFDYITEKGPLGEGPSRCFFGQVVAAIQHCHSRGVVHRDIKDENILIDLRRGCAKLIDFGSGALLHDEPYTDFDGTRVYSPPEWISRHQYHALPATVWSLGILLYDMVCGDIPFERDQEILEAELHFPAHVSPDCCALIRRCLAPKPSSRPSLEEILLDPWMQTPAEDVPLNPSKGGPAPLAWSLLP

[3] = molecular target: T1, Eukaryotic elongation factor 2 kinase (Homo sapiens) (UniProt O00418); assay: Inhibition of human eEF-2K assessed as residual activity at 1 uM relative to control
T1 sequence (whole entry): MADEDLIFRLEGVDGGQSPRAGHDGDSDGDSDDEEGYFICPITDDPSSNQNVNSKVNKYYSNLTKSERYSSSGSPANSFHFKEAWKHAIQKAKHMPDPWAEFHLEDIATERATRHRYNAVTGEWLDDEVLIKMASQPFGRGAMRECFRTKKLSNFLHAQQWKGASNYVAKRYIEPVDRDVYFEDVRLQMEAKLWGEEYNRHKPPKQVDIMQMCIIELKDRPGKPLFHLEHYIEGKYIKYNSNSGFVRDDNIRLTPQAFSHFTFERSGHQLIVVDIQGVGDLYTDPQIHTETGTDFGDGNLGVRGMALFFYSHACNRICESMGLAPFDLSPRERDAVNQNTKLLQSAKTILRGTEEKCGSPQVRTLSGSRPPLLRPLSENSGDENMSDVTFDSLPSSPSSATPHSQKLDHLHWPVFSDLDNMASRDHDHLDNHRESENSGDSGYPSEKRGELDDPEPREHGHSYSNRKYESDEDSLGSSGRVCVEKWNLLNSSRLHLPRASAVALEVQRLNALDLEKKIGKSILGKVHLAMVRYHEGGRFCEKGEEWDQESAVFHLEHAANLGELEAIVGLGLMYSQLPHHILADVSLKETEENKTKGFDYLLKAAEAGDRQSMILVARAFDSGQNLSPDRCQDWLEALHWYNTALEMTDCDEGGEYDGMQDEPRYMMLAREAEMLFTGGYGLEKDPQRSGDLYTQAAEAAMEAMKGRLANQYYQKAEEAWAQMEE

[4] = molecular target: T2, NUAK family SNF1-like kinase 1 (Homo sapiens) (UniProt O60285); assay: Inhibition of human ARK5 assessed as residual activity at 1 uM relative to control
T2 sequence (whole entry): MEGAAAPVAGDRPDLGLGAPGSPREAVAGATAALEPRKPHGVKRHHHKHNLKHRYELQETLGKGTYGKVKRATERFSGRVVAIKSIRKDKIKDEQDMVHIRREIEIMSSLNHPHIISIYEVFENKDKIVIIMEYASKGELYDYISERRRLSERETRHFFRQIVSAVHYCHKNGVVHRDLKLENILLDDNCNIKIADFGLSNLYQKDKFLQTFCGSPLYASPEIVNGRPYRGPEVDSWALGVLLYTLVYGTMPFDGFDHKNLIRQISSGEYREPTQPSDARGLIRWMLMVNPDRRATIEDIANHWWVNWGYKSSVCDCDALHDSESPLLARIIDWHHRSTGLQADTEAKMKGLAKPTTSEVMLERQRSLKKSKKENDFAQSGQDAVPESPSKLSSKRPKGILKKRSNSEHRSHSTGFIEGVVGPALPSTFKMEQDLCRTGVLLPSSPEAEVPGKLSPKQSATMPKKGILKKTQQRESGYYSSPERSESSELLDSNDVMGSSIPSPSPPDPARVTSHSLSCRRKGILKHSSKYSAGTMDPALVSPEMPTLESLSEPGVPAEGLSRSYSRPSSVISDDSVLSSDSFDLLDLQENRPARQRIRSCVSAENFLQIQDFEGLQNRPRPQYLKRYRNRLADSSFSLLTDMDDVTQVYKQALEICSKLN

[5] = system: Proto-oncogene tyrosine-protein kinase receptor Ret (Homo sapiens), P07949 [V804M]; assay: Inhibition of human RET V804M mutant assessed as residual activity at 1 uM relative to control
Chain of Proto-oncogene tyrosine-protein kinase receptor Ret (Homo sapiens), P07949 [V804M] (P07949 whole entry V804M): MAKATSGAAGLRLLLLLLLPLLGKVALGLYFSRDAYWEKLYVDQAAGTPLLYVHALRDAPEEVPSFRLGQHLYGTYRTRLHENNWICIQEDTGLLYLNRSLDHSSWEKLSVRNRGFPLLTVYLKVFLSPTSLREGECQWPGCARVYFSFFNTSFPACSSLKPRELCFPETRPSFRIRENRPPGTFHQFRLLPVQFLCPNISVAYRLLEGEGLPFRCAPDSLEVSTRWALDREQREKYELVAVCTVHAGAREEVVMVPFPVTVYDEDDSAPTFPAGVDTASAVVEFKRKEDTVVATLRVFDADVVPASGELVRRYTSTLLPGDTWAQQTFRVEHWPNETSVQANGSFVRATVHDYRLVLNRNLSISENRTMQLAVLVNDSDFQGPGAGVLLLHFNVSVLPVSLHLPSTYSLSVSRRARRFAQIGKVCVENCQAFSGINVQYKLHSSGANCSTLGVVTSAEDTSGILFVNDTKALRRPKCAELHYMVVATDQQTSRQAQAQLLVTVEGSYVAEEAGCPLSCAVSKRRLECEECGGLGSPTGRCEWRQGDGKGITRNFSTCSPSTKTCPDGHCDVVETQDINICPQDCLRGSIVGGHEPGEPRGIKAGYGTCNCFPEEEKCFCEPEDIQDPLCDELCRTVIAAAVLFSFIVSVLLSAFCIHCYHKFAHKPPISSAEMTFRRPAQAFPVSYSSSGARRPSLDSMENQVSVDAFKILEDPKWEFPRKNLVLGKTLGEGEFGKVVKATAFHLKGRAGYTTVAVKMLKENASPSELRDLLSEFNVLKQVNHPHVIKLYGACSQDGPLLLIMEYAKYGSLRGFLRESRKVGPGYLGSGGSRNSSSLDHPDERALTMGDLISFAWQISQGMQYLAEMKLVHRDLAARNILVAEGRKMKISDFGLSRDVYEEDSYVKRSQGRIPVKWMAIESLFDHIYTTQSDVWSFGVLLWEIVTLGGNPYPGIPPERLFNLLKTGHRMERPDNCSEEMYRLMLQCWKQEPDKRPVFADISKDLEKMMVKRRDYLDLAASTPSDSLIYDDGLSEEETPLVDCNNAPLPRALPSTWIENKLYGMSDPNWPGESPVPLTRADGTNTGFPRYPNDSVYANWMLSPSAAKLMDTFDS

[6] = molecular target: Vascular endothelial growth factor receptor 1 (Homo sapiens) (UniProt P17948); assay: Inhibition of human FLT1 assessed as residual activity at 1 uM relative to control
Chain of Vascular endothelial growth factor receptor 1 (Homo sapiens) (P17948 whole entry): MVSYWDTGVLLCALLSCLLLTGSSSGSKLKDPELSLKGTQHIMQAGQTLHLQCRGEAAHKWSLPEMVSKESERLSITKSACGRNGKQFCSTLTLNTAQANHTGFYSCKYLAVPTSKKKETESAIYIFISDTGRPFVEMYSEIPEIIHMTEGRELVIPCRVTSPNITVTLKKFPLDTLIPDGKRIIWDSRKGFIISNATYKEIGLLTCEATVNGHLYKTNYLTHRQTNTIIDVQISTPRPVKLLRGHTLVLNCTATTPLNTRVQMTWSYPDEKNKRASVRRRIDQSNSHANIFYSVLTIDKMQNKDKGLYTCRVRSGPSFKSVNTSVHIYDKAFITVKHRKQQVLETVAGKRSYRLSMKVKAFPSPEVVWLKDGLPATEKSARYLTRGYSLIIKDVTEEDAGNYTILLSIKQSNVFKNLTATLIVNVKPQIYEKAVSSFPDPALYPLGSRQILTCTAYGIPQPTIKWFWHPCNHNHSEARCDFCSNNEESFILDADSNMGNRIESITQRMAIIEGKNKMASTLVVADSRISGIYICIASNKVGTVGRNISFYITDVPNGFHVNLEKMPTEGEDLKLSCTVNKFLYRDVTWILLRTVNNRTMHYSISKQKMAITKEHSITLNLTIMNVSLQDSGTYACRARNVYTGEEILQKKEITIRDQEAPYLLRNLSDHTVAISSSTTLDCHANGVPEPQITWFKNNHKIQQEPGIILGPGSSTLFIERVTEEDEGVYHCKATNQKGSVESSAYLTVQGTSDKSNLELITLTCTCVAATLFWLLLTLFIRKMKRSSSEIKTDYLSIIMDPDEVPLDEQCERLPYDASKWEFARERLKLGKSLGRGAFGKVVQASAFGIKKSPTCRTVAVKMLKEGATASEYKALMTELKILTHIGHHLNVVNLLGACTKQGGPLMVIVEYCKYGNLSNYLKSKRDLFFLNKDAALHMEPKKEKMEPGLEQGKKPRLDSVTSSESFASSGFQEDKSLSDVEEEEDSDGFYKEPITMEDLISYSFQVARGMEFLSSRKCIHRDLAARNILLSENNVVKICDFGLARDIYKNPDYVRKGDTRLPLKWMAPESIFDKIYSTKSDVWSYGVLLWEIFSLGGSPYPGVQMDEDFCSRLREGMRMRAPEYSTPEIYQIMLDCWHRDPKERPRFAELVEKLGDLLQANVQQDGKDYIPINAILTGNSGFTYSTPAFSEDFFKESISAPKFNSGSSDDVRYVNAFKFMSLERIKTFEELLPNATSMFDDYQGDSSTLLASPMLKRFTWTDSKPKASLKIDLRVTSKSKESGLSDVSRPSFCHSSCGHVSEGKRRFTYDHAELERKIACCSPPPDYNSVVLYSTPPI

Aurora kinase B = Aurora kinase B (Homo sapiens, UniProt Q96GD4); assay: Inhibition of aurora B (unknown origin)
Chain of Aurora kinase B (Q96GD4 whole entry): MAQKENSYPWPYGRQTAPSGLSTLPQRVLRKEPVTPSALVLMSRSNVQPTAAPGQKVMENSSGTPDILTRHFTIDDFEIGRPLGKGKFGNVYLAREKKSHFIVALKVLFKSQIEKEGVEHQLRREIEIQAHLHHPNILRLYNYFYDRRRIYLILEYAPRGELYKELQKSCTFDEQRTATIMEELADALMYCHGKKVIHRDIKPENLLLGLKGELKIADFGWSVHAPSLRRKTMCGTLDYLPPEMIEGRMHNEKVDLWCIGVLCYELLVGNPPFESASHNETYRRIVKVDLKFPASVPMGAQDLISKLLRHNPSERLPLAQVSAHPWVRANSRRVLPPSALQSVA

[7] = molecular target: Macrophage-stimulating protein receptor (Homo sapiens) (UniProt Q04912); assay: Inhibition of human RON assessed as residual activity at 1 uM relative to control
[8] = molecular target: T3, Serine/threonine-protein kinase 4 (Homo sapiens) (UniProt Q13043); assay: Inhibition of human MST1 assessed as residual activity at 1 uM relative to control
T3 sequence (whole entry): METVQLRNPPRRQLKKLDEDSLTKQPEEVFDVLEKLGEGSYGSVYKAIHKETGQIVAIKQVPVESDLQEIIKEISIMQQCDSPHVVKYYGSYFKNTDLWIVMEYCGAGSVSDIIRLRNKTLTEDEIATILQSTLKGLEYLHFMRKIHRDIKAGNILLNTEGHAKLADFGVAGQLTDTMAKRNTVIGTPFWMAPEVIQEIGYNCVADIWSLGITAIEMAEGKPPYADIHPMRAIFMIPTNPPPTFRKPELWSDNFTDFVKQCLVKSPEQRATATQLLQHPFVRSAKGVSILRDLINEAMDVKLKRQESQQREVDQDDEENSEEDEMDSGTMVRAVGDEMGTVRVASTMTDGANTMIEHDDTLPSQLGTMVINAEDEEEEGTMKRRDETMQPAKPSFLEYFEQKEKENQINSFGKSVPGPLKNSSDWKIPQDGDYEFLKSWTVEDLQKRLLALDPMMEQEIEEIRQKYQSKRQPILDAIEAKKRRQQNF

[9] = molecular target: T4, Serine/threonine-protein kinase Nek2 (Homo sapiens) (UniProt P51955); assay: Inhibition of human NEK2 assessed as residual activity at 1 uM relative to control
T4 sequence (whole entry): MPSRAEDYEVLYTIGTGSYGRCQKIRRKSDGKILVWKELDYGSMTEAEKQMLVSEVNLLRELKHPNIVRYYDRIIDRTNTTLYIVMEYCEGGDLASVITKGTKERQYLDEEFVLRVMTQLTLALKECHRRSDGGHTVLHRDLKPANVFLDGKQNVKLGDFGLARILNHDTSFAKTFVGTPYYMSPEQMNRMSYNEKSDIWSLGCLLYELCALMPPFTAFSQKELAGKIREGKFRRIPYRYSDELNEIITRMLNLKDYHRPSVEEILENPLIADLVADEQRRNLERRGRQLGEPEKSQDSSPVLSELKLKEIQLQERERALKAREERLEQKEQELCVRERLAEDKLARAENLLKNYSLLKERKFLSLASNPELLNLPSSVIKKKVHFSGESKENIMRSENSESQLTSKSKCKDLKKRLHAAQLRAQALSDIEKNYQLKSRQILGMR

[10] = molecular target: CDK9/cyclin T1 (Homo sapiens) (UniProt O60563+P50750); assay: Inhibition of human CDK9/cyclin T1 assessed as residual activity at 1 uM relative to control; type: protein-complex assay
[11] = molecular target: ALK tyrosine kinase receptor (Homo sapiens) (UniProt Q9UM73); assay: Inhibition of human ALK assessed as residual activity at 1 uM relative to control
Chain of ALK tyrosine kinase receptor (Homo sapiens) (Q9UM73 19-1620 limits assumed): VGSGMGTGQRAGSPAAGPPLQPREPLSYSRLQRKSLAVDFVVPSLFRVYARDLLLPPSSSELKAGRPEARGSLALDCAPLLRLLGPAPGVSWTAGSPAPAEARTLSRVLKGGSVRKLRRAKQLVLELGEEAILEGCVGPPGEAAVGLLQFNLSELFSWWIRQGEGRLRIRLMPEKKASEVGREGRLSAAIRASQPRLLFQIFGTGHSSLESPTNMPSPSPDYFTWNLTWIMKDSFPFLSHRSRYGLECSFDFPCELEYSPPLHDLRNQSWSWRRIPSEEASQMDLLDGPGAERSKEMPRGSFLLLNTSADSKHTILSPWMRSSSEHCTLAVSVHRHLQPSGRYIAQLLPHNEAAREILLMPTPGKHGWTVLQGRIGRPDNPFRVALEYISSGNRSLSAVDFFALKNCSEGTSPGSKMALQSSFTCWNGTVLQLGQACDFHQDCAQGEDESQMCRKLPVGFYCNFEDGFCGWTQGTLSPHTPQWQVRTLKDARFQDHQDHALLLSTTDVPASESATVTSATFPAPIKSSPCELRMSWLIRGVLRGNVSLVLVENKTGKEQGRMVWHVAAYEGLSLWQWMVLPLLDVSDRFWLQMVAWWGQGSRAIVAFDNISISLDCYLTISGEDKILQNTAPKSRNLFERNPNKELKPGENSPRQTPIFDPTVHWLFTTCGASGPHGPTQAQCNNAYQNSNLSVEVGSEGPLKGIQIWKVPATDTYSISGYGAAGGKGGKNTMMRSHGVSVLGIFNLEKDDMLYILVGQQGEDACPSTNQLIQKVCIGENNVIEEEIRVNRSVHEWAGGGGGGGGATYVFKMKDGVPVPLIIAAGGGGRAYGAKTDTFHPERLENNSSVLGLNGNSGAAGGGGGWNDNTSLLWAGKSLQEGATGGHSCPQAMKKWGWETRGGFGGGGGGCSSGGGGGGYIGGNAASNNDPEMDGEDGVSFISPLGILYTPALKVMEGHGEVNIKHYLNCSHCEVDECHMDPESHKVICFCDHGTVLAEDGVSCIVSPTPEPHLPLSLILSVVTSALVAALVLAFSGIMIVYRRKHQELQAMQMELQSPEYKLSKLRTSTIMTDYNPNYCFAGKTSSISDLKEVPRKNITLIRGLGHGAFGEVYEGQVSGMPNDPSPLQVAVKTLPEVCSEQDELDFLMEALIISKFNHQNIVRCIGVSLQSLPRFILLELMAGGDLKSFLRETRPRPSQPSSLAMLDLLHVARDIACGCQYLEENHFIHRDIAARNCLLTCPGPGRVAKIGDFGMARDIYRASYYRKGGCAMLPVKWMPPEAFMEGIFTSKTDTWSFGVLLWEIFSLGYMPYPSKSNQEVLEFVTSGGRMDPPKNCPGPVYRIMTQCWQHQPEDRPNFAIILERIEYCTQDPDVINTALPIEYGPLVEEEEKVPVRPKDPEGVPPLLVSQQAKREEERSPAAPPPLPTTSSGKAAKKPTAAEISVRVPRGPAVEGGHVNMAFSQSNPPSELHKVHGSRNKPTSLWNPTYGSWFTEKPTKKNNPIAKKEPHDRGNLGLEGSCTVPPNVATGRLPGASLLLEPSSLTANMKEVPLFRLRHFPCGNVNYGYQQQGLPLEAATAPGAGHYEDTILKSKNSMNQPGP

COc1ccc(-c2nc3cc(-c4csc(C(=O)NCCC(C)C)c4)cnc3[nH]2)cc1
Activity [1]: 95%
Activity [2]: 94%
Activity [3]: 101%
Activity [4]: 76%
Activity [5]: 9%
Activity [6]: 22%
pIC50 (Aurora kinase B): 4.73
Activity [7]: 132%
Activity [8]: 116%
Activity [9]: 97%
Activity [10]: 95%
Activity [11]: 88%

COc1ccc(-c2nc3cc(-c4csc(C(=O)NCC(C)(C)C)c4)cnc3[nH]2)cc1
Activity [1]: 100%
Activity [2]: 93%
Activity [3]: 91%
Activity [4]: 79%
Activity [5]: 24%
Activity [6]: 24%
pIC50 (Aurora kinase B): 5.84
Activity [7]: 122%
Activity [8]: 122%
Activity [9]: 111%
Activity [10]: 103%
Activity [11]: 101%

COc1ccc(-c2nc3cc(-c4csc(C(=O)NCC(C)C)c4)cnc3[nH]2)cc1
Activity [1]: 91%
Activity [2]: 90%
Activity [3]: 102%
Activity [4]: 68%
Activity [5]: 15%
Activity [6]: 10%
pIC50 (Aurora kinase B): 5.23
Activity [7]: 128%
Activity [8]: 115%
Activity [9]: 120%
Activity [10]: 100%
Activity [11]: 99%
